Test results reported in the NIST ThermoML archive (doi:10.1016/j.jct.2016.03.034).
± gives the expanded uncertainty stated by the source.

Experiments:
[1] = 101.33 kPa, Liquid; for mass density: Vibrating tube method; for viscosity: Capillary tube (Ostwald / Ubbelohde) method
[2] = xn = mol fraction of the nth substance listed; settings: 100 kPa, Liquid, x1 = 1; for viscosity: Capillary tube (Ostwald / Ubbelohde) method; for mass density: Vibrating tube method

Row | SMILES | viscosity ([1]; 293.15 K) [mPa·s] | mass density ([1]; 293.15 K) [kg/m3] | viscosity ([1]; 298.15 K) [mPa·s] | mass density ([1]; 298.15 K) [kg/m3] | viscosity ([1]; 303.15 K) [mPa·s] | mass density ([1]; 303.15 K) [kg/m3] | viscosity ([1]; 308.15 K) [mPa·s] | mass density ([1]; 308.15 K) [kg/m3] | viscosity ([1]; 313.15 K) [mPa·s] | mass density ([1]; 313.15 K) [kg/m3] | viscosity ([1]; 318.15 K) [mPa·s] | mass density ([1]; 318.15 K) [kg/m3] | viscosity ([1]; 323.15 K) [mPa·s] | mass density ([1]; 323.15 K) [kg/m3] | viscosity ([2]; 293.15 K) [mPa·s] | mass density ([2]; 293.15 K) [kg/m3] | viscosity ([2]; 298.15 K) [mPa·s] | mass density ([2]; 298.15 K) [kg/m3] | viscosity ([2]; 303.15 K) [mPa·s] | mass density ([2]; 303.15 K) [kg/m3] | further results
1 | CCCCCCCCn1cc[n+](C)c1.O=S(=O)([N-]S(=O)(=O)C(F)(F)F)C(F)(F)F | 114.86 ± 4.9 | 1324.82 ± 11 | 88.59 ± 3.7 | 1320.47 ± 11 | 69.08 ± 2.8 | 1316.05 ± 11 | 55.38 ± 2.2 | 1311.64 ± 11 | 45.03 ± 1.8 | 1307.24 ± 10 | 37.25 ± 1.5 | 1302.85 ± 10 | 30.83 ± 1.2 | 1298.47 ± 10 | – | – | – | – | – | – | mass density ([1]; 273.15 K): 1340.42 ± 11 kg/m3; viscosity ([1]; 283.15 K): 208.88 ± 9.6 mPa·s; mass density ([1]; 283.15 K): 1331.26 ± 11 kg/m3
2 | CCCCCC[n+]1ccn(C)c1.O=S(=O)([N-]S(=O)(=O)C(F)(F)F)C(F)(F)F | 87.29 ± 3.6 | 1376.84 ± 11 | 70.52 ± 2.9 | 1371.81 ± 11 | 55.92 ± 2.3 | 1367.68 ± 11 | 47.46 ± 1.9 | 1363.11 ± 11 | 37.22 ± 1.5 | 1357.51 ± 11 | 31.35 ± 1.3 | 1352.62 ± 11 | 25.95 ± 1.1 | 1349.46 ± 11 | – | – | – | – | – | – | viscosity ([1]; 273.15 K): 279.26 ± 13 mPa·s; mass density ([1]; 273.15 K): 1395.43 ± 11 kg/m3; mass density ([1]; 278.15 K): 1390.66 ± 11 kg/m3; viscosity ([1]; 283.15 K): 148.8 ± 6.5 mPa·s; mass density ([1]; 283.15 K): 1386.02 ± 11 kg/m3; mass density ([1]; 288.15 K): 1381.44 ± 11 kg/m3
3 | CCn1cc[n+](C)c1.O=S(=O)([N-]S(=O)(=O)C(F)(F)F)C(F)(F)F | 37.8 ± 1.5 | 1523.44 ± 12 | 31.79 ± 1.3 | 1518.3 ± 12 | 26.84 ± 1.1 | 1513.11 ± 12 | 22.9 ± 0.9 | 1507.9 ± 12 | 19.75 ± 0.8 | 1502.68 ± 12 | 17.05 ± 0.69 | 1497.48 ± 12 | 15.02 ± 0.61 | 1492.24 ± 12 | – | – | – | – | – | – | –
4 | CCCCCCCCn1cc[n+](C)c1.O=S(=O)([N-]S(=O)(=O)C(F)(F)F)C(F)(F)F + O=C1CCCO1 | – | – | – | – | – | – | – | – | – | – | – | – | – | – | 114.86 ± 4.9 | 1324.82 ± 11 | 88.59 ± 3.7 | 1320.47 ± 11 | 69.08 ± 2.8 | 1316.05 ± 11 | viscosity ([2]; 308.15 K): 56.43 ± 2.3 mPa·s; mass density ([2]; 308.15 K): 1311.64 ± 11 kg/m3; viscosity ([2]; 313.15 K): 45.03 ± 1.8 mPa·s; mass density ([2]; 313.15 K): 1307.24 ± 10 kg/m3; viscosity ([2]; 318.15 K): 37.25 ± 1.5 mPa·s; mass density ([2]; 318.15 K): 1302.85 ± 10 kg/m3; viscosity ([2]; 323.15 K): 30.83 ± 1.2 mPa·s; mass density ([2]; 323.15 K): 1298.47 ± 10 kg/m3
5 | CCCCCC[n+]1ccn(C)c1.O=S(=O)([N-]S(=O)(=O)C(F)(F)F)C(F)(F)F + O=C1CCCO1 | – | – | – | – | – | – | – | – | – | – | – | – | – | – | 87.29 ± 3.6 | 1376.84 ± 11 | 70.52 ± 2.9 | 1371.81 ± 11 | 55.92 ± 2.3 | 1367.68 ± 11 | viscosity ([2]; 308.15 K): 47.46 ± 1.9 mPa·s; mass density ([2]; 308.15 K): 1363.11 ± 11 kg/m3; viscosity ([2]; 313.15 K): 37.22 ± 1.5 mPa·s; mass density ([2]; 313.15 K): 1357.51 ± 11 kg/m3; viscosity ([2]; 318.15 K): 31.35 ± 1.3 mPa·s; mass density ([2]; 318.15 K): 1352.62 ± 11 kg/m3; viscosity ([2]; 323.15 K): 25.95 ± 1.1 mPa·s; mass density ([2]; 323.15 K): 1349.46 ± 11 kg/m3
6 | CCn1cc[n+](C)c1.O=S(=O)([N-]S(=O)(=O)C(F)(F)F)C(F)(F)F + O=C1CCCO1 | – | – | – | – | – | – | – | – | – | – | – | – | – | – | 37.8 ± 1.5 | 1523.44 ± 12 | 31.79 ± 1.3 | 1518.3 ± 12 | 26.84 ± 1.1 | 1513.11 ± 12 | viscosity ([2]; 308.15 K): 22.9 ± 0.93 mPa·s; mass density ([2]; 308.15 K): 1507.9 ± 12 kg/m3; viscosity ([2]; 313.15 K): 19.75 ± 0.8 mPa·s; mass density ([2]; 313.15 K): 1502.68 ± 12 kg/m3; viscosity ([2]; 318.15 K): 17.05 ± 0.69 mPa·s; mass density ([2]; 318.15 K): 1497.48 ± 12 kg/m3; viscosity ([2]; 323.15 K): 15.02 ± 0.61 mPa·s; mass density ([2]; 323.15 K): 1492.24 ± 12 kg/m3
